Biological target: T1, PAF receptor (Oryctolagus cuniculus, UniProt G1TEI7)
T1 construct: platelet membranes where prepared by centrifugation and washing; tissue Pel-Freez (Rogers, AR) (whole rabbit blood); host or cells: rabbit platelet membranes
Assay: PAF receptor binding assay ([3H]C18-PAF, rabbit platelet membranes)
Settings: read-out: PAF Receptor Binding Activity K1

T1 sequence (G1TEI7 1-342): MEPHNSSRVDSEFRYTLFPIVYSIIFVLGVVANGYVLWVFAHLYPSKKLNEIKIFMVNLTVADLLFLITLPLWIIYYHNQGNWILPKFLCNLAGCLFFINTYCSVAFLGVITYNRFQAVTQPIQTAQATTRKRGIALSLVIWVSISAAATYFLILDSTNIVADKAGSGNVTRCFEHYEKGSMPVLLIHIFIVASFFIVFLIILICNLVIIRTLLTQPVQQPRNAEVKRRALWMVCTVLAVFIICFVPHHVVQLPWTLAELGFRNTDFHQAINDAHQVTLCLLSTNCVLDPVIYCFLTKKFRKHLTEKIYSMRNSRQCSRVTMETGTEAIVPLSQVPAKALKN

Ki [nM] | SMILES
44 | CNC(=O)n1cc(C(=O)c2ccn3c2CSC3c2ccc[n+]([O-])c2)c2ccc(-c3ccccc3)cc21 (stereo not drawn) [Example 35, 3-(1-Oxide-pyridin-3-yl)-7-(1-N-methylcarbamoyl-6-phenylindol-3-ylcarbonyl)-1H,3H-pyrrolo[1,2-c]thiazole]
244 | CCS(=O)(=O)n1cc(C(=O)c2ccn3c2CSC3c2cccnc2)c2ccc(-c3ccc(F)cc3)cc21 (stereo not drawn) [Example 71, 3-(Pyridin-3-yl)-7-[1-ethanesulfonyl-6-[4-fluorophenyl)indol-3-ylcarbonyl]-1H,3H-pyrrolo[1,2-c]thiazole]
280 | CN(C)C(=O)n1cc(C(=O)c2ccn3c2CSC3c2cccnc2)c2ccc(-c3cnc(N)nc3)cc21 (stereo not drawn) [Example 89]
